Measurements taken from publication PMC8041284, “Tunable Methacrylamides for Covalent Ligand Directed Release Chemistry” (Journal of the American Chemical Society, 2021).
Where a SMILES comes first, the peptide text is derived from it. [ ]: non-standard residue; d: D form. The star is where a group is joined. Benzoyl(4-tBu) = CC(C)(C)c1ccc(C(=O)*)cc1; Lys(Et2) = CCN(CC)CCCC[C@H](N)C(=O)O

target: BTK (Homo sapiens, UniProt Q06187); assay: biochemical; details: read-out: BTK inhibition (%)
Sequence (Q06187 402-655 limits assumed): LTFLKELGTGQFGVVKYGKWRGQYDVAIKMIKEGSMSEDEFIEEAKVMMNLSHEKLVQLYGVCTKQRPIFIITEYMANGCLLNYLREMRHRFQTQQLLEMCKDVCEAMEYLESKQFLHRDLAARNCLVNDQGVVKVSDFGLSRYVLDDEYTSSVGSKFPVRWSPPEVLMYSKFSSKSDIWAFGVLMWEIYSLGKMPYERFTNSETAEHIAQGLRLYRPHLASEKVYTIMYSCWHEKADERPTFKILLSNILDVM

| Compound | inhibition at 10 µM [%] |
| --- | --- |
| CC(=O)O[C@H]1[C@H]2[C@@H](OC(=O)Cc3ccccc3)[C@@H](C)C[C@]2(OC(C)=O)C(=O)/C(C)=C/[C@@H]2[C@H](CC[C@@]13CO3)C2(C)C [PCM-0215129] | -14 |

same assay, conditions: read-out: BTK inhibition (%), 0.75 uM BTK, […] probe 3l, 15 min preincubation

| Compound | inhibition at 10 µM [%] |
| --- | --- |
| O=C(c1ccc(F)cc1)N1CCC[C@H](c2nc(-c3ccc(F)cc3)no2)C1 [PCM-0095385] | -13.2 |
| CC(=O)OCC(=O)[C@@]1(O)[C@H](C)C[C@H]2[C@@H]3CCC4=CC(=O)C=C[C@]4(C)[C@@]3(F)[C@@H](O)C[C@@]21C [PCM-0085852] | 1.4 |
| C[C@H](N[C@@H](CCc1ccccc1)C(=O)O)C(=O)N1CCC[C@H]1C(=O)O [PCM-0065638] | 3.1 |
| O=C1CCC(N2C(=O)c3ccccc3C2=O)C(=O)N1 (stereo not drawn) [PCM-0064817] | 5.5 |
| COc1ccc([C@H]2CNC(=O)C2)cc1OC1CCCC1 [PCM-0095307] | 7 |
| CCOC(=O)C1=C(C)NC(=S)NC1c1cccc(O)c1 (stereo not drawn) [PCM-0215759] | -25.5 |
| COc1ccc2cc(CCC(C)=O)ccc2c1 [PCM-0086446] | 7.6 |
| Cn1nnc2c(C(N)=O)ncn2c1=O [PCM-0086047] | -4.1 |
| Cc1ccc(O)c([C@H](CCN(C(C)C)C(C)C)c2ccccc2)c1 [PCM-0095328] | 1.6 |
| CCC(CC)CC1(C(=O)Nc2ccccc2SC(=O)C(C)C)CCCCC1 [PCM-0095336] | 6.2 |
| CC(O)=C(C#N)C(=O)Nc1ccc(C(F)(F)F)cc1 [PCM-0214764] | 0 |
| NCCc1ccccc1 [PCM-0091318] | 0 |
| CCCCCCCCCCC[C@@H](C[C@@H]1OC(=O)[C@H]1CCCCCC)OC(=O)[C@H](CC(C)C)NC=O [PCM-0095181] | -13.2 |
| C=C1C(=O)[C@]23[C@H](O)[C@H]1CC[C@H]2[C@@]12CO[C@]3(O)[C@@H](O)[C@@H]1C(C)(C)CC[C@@H]2O [PCM-0214681] | -1.6 |
| CC(=O)Oc1c(C)c(C)c2c(c1C)CC[C@@](C)(CCC[C@H](C)CCC[C@H](C)CCCC(C)C)O2 [PCM-0215944] | 0 |
| COc1cc(-c2cc(-c3ccc(N4CCNCC4)cc3)cnc2C)cc(OC)c1OC [PCM-0215462] | -19.3 |
| COc1ccccc1 [PCM-0216198] | -14.7 |
| CCOC(=O)C1=C(C)NC(C)=C(C(=O)OC)C1c1cccc(Cl)c1Cl (stereo not drawn) [PCM-0065133] | 17.9 |
| CCNC(=O)Nc1ccc(-c2nc3c(c(N4CCOC[C@@H]4C)n2)CCN(C2COC2)C3)cc1 [PCM-0095629] | 3.4 |
| C[C@@H]1O[C@@H](O[C@H]2[C@H](Oc3cc(O)c(C(=O)CCc4ccc(O)cc4)c(O)c3)O[C@H](CO)[C@@H](O)[C@@H]2O)[C@H](O)[C@H](O)[C@H]1O [PCM-0094838] | 14.8 |
| Cc1cccc(C)c1N(CC(=O)Nc1ccc(-c2ncon2)cc1)C(=O)C1CCS(=O)(=O)CC1 [PCM-0216196] | 2.3 |
| COC(=O)C1=CO[C@@H](O[C@@H]2O[C@H](CO)[C@@H](O)[C@H](O)[C@H]2O)[C@@H]2[C@@H](C)CC(=O)[C@]12O [PCM-0216345] | -3.1 |
| N#CC[C@H](C1CCCC1)n1cc(-c2ncnc3[nH]ccc23)cn1 [PCM-0095031] | 28.3 |
| C=CC(=O)Nc1cccc(Nc2nc(Nc3ccc(Oc4ccnc(C(=O)NC)c4)cc3)ncc2F)c1 [PCM-0215277] | 115 |
| O=C1C(=O)c2ccccc2C(O)=C1C1CCC(c2ccc(Cl)cc2)CC1 (stereo not drawn) [PCM-0214729] | 16.3 |

| Compound | inhibition at 10 µM [%] |
| --- | --- |
| CCC(C)(C)c1ccc(CC(C)CN2C[C@@H](C)O[C@@H](C)C2)cc1 (stereo partly drawn) [PCM-0090274] | -31.9 |
| CC(C)Oc1ccc(-c2nc(-c3cccc4c3CC[C@@H]4NCCO)no2)cc1C#N [PCM-0215588] | -5.5 |
| CC(C)(CO)n1cc(C(=O)c2cncc(NC(=O)Cc3ccc(Cl)cn3)c2)c2cnc(N)nc21 [PCM-0215853] | 5.5 |
| CN1CCC(=C2c3ccccc3CC(=O)c3sccc32)CC1 [PCM-0065580] | 10.3 |
| Cc1[nH]c(/C=C2\C(=O)Nc3ccc(S(=O)(=O)N(C)c4cccc(Cl)c4)cc32)c(C)c1C(=O)N1CCN(C)CC1 [PCM-0095046] | 6.9 |
| CC1(C)CC[C@]2(C(=O)O)[C@H](O)C[C@]3(C)C(=CC[C@@H]4[C@@]5(C)CC[C@H](O)C(C)(C)[C@@H]5CC[C@]43C)[C@@H]2C1 [PCM-0214984] | 24.8 |
| CCN(CC)CCCC[C@H](NC(=O)[C@H](CC(C)C)NC(=O)[C@H](C)NC(=O)[C@H](Cc1ccccc1)NC(=O)c1ccc(C(C)(C)C)cc1)C(=O)N[C@@H](CO)C(=O)OC [PCM-0215741] ({Benzoyl(4-tBu)}-FAL[Lys(Et2)]S-OMe) | -16.2 |
| CCCCCCCCCCCCN1CCCCCC1=O [PCM-0216037] | -2.3 |
| Nc1nc(Cl)nc2c1ncn2[C@H]1C[C@H](O)[C@@H](CO)O1 [PCM-0086228] | -16.6 |
| CSc1cccc(Nc2ncc3cc(-c4c(Cl)cccc4Cl)c(=O)n(C)c3n2)c1 [PCM-0215338] | -18.6 |
| COc1cc(C=O)cc(OC)c1O [PCM-0215069] | -33.5 |
| CC(=O)O[C@@H]1CC[C@@]2(C)[C@@H](CC[C@]3(C)[C@@H]2C(=O)C=C2[C@@H]4[C@@H](C)[C@H](C)CC[C@]4(C)CC[C@]23C)[C@@]1(C)C(=O)O [PCM-0216599] | 88 |
| CCn1c2ccccc2c2cc(Nc3ccnc(NCCCN4CCOCC4)n3)ccc21 [PCM-0215246] | -6.9 |
| CCC1=C(C)CN(C(=O)NCCc2ccc(S(=O)(=O)NC(=O)NC3CCC(C)CC3)cc2)C1=O (stereo not drawn) [PCM-0086384] | 8.6 |
| CCOc1ccc(NC(C)=O)cc1 [PCM-0086095] | 5.5 |
| Nc1ncnc2c1c(-c1cccc(OCc3ccccc3)c1)cn2C1CC(CN2CCCC2)C1 (stereo not drawn) [PCM-0095055] | 13.2 |
| COc1ccc(/C=C/c2cc(O)cc(O[C@@H]3O[C@H](CO)[C@@H](O)[C@H](O)[C@H]3O)c2)cc1O [PCM-0214544] | 6.9 |
| COc1ccc(-n2c(C)c([N+](=O)[O-])c3ccc(O)cc32)cc1 [PCM-0215272] | 23.4 |
| NC(=O)CCCSc1nc(N)nc(-c2c(Cl)cc3c4c(cccc24)COC3)n1 [PCM-0095776] | -2.3 |
| COc1cc(N2CCC(N3CCN(C)CC3)CC2)ccc1Nc1ncc(Cl)c(Nc2ccccc2S(=O)(=O)C(C)C)n1 [PCM-0094890] | 88.5 |
| NCCNc1ccc(NCCN)c2c1C(=O)c1ccncc1C2=O [PCM-0215996] | 23.2 |
| Cn1cc(-c2[nH]c3cc(NC(=O)[C@H](N)C4CCCCC4)cc4c3c2C=NNC4=O)cn1 [PCM-0095372] | 111 |
| CC(C)CN(CC(=O)N1CCN(CC(OCc2ccc3ccccc3c2)c2ccc(Cl)cc2Cl)CC1)CC(C)C (stereo not drawn) [PCM-0215889] | 93.4 |
| C=C1C[C@@H]2[C@H](CC[C@]3(C)C(=O)CC[C@@H]23)[C@@]2(C)C=CC(=O)C=C12 [PCM-0214605] | -6.9 |
| CS(=O)(=O)N1CCN(Cc2cc3nc(-c4cccc5[nH]ncc45)nc(N4CCOCC4)c3s2)CC1 [PCM-0094994] | -15.9 |

| Compound | inhibition at 10 µM [%] |
| --- | --- |
| CCOC(=O)C1=C[C@]2(CC)CCCN3CCc4c(n1c1ccccc41)[C@@H]32 [PCM-0064941] | -14.5 |
| O=c1[nH]c(-c2ccc(C(F)(F)F)cc2)nc2c1CSCC2 [PCM-0095054] | -25.5 |
| CCCCNc1ncc2c(-c3ccc(CN4CCN(C)CC4)cc3)cn(C3CCC(O)CC3)c2n1 (stereo not drawn) [PCM-0215532] | 55.9 |
| COc1cc([C@H]2Oc3cc([C@H]4Oc5cc(O)cc(O)c5C(=O)[C@@H]4O)ccc3O[C@@H]2CO)ccc1O [PCM-0088703] | 24.1 |
| O=C(O)c1ccco1 [PCM-0215122] | -21.8 |
| CN(C)CCC[C@@]1(c2ccc(F)cc2)OCc2cc(C#N)ccc21 [PCM-0064474] | -6.2 |
| C/C=C(/C)C(=O)O[C@H]1c2cc(OC)c(OC)c(OC)c2-c2c(cc3c(c2OC)OCO3)C[C@H](C)[C@]1(C)O [PCM-0216333] | -25.5 |
| Oc1ccc(OCc2ccccc2)cc1 [PCM-0086466] | 8.6 |
| CC(C)Nc1cc(-c2c[nH]c(C(=O)N[C@H](CO)c3cccc(Cl)c3)c2)c(Cl)cn1 [PCM-0215481] | 78.6 |
| CN(CC(=O)O)C(=N)N [PCM-0216212] | -30.6 |
| CN(C)c1nc(N(C)C)nc(N(C)C)n1 [PCM-0064404] | 15.9 |
| Cc1cc(C)nc(SCC(=O)Nc2ncc(Cc3cccc4ccccc34)s2)n1 [PCM-0215537] | 2.3 |
| Cc1nc(Nc2cnn(C3CCNCC3)c2)nc2c1N(C)C(=O)c1cc3ccccc3cc1N2C [PCM-0213384] | 30.3 |
| COc1ccc2cc1Oc1ccc(cc1)C[C@H]1c3cc(c(OC)cc3CCN1C)Oc1c(O)c(OC)cc3c1[C@H](C2)N(C)CC3 [PCM-0214877] | 27.2 |
| Cc1nc(N)sc1-c1ccnc(Nc2ccc(N3CCOCC3)cc2)n1 [PCM-0095025] | 57.2 |
| COc1ccc(/C=C/c2cc(OC)cc(=O)o2)cc1 [PCM-0216316] | -2.3 |
| C[N+]1(C)C2CCC1CC(OC(=O)C(O)c1ccccc1)C2 (stereo not drawn) [PCM-0095577] | -9.3 |
| CCCCCCCC(=O)N[C@H](CN1CCCC1)[C@H](O)c1ccc2c(c1)OCCO2 [PCM-0215629] | -9.3 |
| C=CC(=O)Nc1cccc(C)c1Nc1ncc2cc(-c3c(Cl)c(OC)cc(OC)c3Cl)ccc2n1 [PCM-0215508] | 100 |
| O=C1[C@H](CC[C@H](O)c2ccc(F)cc2)[C@@H](c2ccc(O)cc2)N1c1ccc(F)cc1 [PCM-0095103] | 31 |
| Cc1ccc(NC(=O)Nc2cc(-c3ccccc3-c3nn[nH]n3)ccc2N(CC(C)C)CC(C)C)cc1 [PCM-0215955] | 72.6 |
| Cc1ccc(C(=O)c2cc(O)c(O)c([N+](=O)[O-])c2)cc1 [PCM-0095576] | 38.1 |
| CC(=O)OCC(=O)[C@H]1CC[C@H]2[C@@H]3CCC4=CC(=O)CC[C@]4(C)[C@H]3CC[C@]12C [PCM-0214761] | -11.7 |
| CC1Cc2ccccc2N1NC(=O)c1ccc(Cl)c(S(N)(=O)=O)c1 (stereo not drawn) [PCM-0085884] | 6.2 |
